No end group written: not given here.

Usually Kd stands for the concentration at which binding is half-saturated. A higher Kd goes with a looser complex.

In test [1] the test system is HLA-A24 molecule (product of the HLA-A*2402 gene). In words: Experiment of binding peptide to HLA-A24 molecule (C1R-A24 cells, flow cytometry). Particulars: for Binding Experiment Data: -log Kd value (Kd in molar concentration), C1R-A24 cells. Further details: species or system human. On the procedure:
The ability of a peptide to bind to an HLA-A24 molecule, which is a product of the HLA-A*2402 gene, was measured using C1R-A24 cells expressing the HLA-A24 molecule (cells prepared by Professor Masafumi Takiguchi, Kumamoto University being supplied with permission by Assistant Professor Masaki Yasukawa, Ehime University).
C1R-A24 cells were first exposed to acidic conditions at a pH of 3.3 for 30 seconds, thus dissociating and removing a light chain β2m, which is associated with HLA class I molecules in common, and an endogenous peptide originally bound to the HLA-A*2402 molecule. After neutralization, purified β2m was added to C1R-A24 cells, the obtained product was added to serial dilutions of a peptide, and incubated on ice for 4 hours. Staining was carried out using fluorescently labeled monoclonal antibody 17A12, which recognizes association (MHC-pep) of the three members, that is, HLA-A*2402 molecule, the peptide, and β2m, which had reassociated during the incubation.
Subsequently, the MHC-pep count per C1R-A24 cell (proportional to the strength of fluorescence of the above-mentioned fluorescent antibody) was quantitatively measured using an FACScan fluorescence-activated cell sorter (Becton Dickinson Biosciences). A binding dissociation constant Kd value between the HLA-A24 molecule and the peptide was calculated from the average strength of fluorescence per cell by a published method (Udaka et al., Immunogenetics, 51, 816-828, 2000).

The target in test [2] is HLA-A2 molecule (product of the HLA-A*0201 gene) (Homo sapiens, UniProt P04439, D140Y/D185E/D98H/E176V/E277Q/G131W/G231S/I119V/I121R/I166T/I218V/L300P/L318F/N151K/N90K/P208A/P217A/Q86G/Q94H/R138H/R169H/T345S). The test is described as follows: Experiment of binding peptide to HLA-A2 molecule (JY cells, flow cytometry). As to conditions: -log Kd value (Kd in molar concentration). On the procedure:
JY cells were first exposed to acidic conditions at a pH of 3.8 for 30 seconds, thus dissociating and removing a light chain β2m and an endogenous peptide, which were noncovalently associated with the HLA-A*0201 molecule. After neutralization, a reassociation experiment was carried out.
The above-mentioned JY cells and the purified β2m were added to stepped dilutions of peptide for which the binding ability would be measured, and incubation was carried out on ice for 4 hours. HLA-A*0201 molecules that had reassociated up to this point were stained using the associating type specific fluorescently-labeled monoclonal antibody BB7.2.
Subsequently, the amount of fluorescence per cell was measured using a flow cytometer and a dissociation constant Kd value in molar concentration was calculated by a published method (Udaka et al., Immunogenetics, 51, 816-828, 2000).

AFLSVKKQF [compound 2]: the “binding to a human HLA-A type molecule (in words)” value (“binding … (in words)” below) in test [1] is recorded as “experimentally confirmed to bind”. In addition, the “Binding Experiment Data” value in test [1] (9 amino acid peptides) was 7.7283.
On to FLKDHRISTF [compound 44], for which the “binding … (in words)” value in test [1] was “experimentally confirmed to bind”. Further, the “Binding Experiment Data” value in test [1] (10 amino acid peptides) is recorded as 7.008.
On to FLKDHRISTF [compound 61], for which the Kd in test [2] (10 amino acid peptides) was 2.95 µM.
Take GAPTLPPAW [compound 6]: in test [1], the “binding … (in words)” value is “experimentally confirmed to bind”. Also, the “Binding Experiment Data” value in test [1] (9 amino acid peptides) was 6.1588.
In turn, SSGCAFLSV [compound 21] gave a Kd in test [2] (9 amino acid peptides) of 5.07 µM.
As for TLPPAWQPF [compound 1], the “binding … (in words)” value in test [1] was “experimentally confirmed to bind”. In test [1] (9 amino acid peptides), the “Binding Experiment Data” value is given as 8.2648.
In the case of TLPPAWQPF [compound 23], the affinity in test [2] (9 amino acid peptides), expressed as Kd, was 4.37 µM.

These data come from patent publication US9353151B2, “HLA-binding peptide, and DNA fragment and recombinant vector coding for said HLA-binding peptide” (NEC Corporation, priority 2005, dated 2016).
